The values that follow come from patent publication US20220388980A1, “QUINOLINE INHIBITORS OF RAD52 AND METHODS OF USE” (Drexel University, priority 2019, published 2022).

The target in this test is T1, RAD52 (Homo sapiens, UniProt P43351).
T1 construct: made in house
T1 sequence (P43351 1-418): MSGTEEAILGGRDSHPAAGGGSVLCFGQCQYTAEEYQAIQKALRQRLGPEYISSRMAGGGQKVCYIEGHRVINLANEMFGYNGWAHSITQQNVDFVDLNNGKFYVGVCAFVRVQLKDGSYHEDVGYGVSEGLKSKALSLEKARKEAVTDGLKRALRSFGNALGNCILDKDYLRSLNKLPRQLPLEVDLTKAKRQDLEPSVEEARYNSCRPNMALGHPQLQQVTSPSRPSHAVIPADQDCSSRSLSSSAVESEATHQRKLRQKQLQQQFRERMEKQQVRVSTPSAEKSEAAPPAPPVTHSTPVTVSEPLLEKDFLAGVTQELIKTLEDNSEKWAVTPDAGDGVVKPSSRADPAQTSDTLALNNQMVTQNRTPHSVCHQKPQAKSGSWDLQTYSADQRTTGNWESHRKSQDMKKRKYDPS
Put plainly: D-loop formation assay. The conditions noted are these: compound at 10 μM; 32P-labeled ssDNA (oligo 90) and supercoiled pUC19 DNA, 37° C. Type of test: biochemical.

For `S=C(NCCN1CCCCCC1)Nc1ccc2nc(N3CCNCC3)ccc2c1` [compound 0021], the “D-Loop (% @10 μM)” value is given as 40.29%. For `S=C(NCCCN1CCCCCC1)Nc1ccc2nc(N3CCNCC3)ccc2c1` [compound 0022], the “D-Loop (% @10 μM)” value worked out at 37.7%. Under `CCN1CCN(c2cc(C)c3cc(NC(=S)NCCN4CCCCC4)ccc3n2)CC1` [compound 0025] stands 36.08%; under `CCN1CCN(c2cc(C)c3cc(NC(=S)NCCCN4CCCCC4)ccc3n2)CC1` [compound 0026], 11.42%.

Turning to `CCN1CCN(c2cc(C)c3cc(NC(=S)NCCN4CCCCCC4)ccc3n2)CC1` [compound 0027], the “D-Loop (% @10 μM)” value is listed as 23.26%. Under `CCN1CCN(c2cc(C)c3cc(NC(=S)NCCCN4CCCCCC4)ccc3n2)CC1` [compound 0028] stands 46.57%; under `CCN1CCN(c2cc(C)c3cc(NC(=S)NCCN4CCCC4)ccc3n2)CC1` [compound 0029], 46.67%. Under `CCN1CCN(c2cc(C)c3cc(NC(=S)NCCN)ccc3n2)CC1` [compound 0033] stands 12.77%; under `CCN1CCN(c2cc(C)c3cc(NC(=S)NCCN(C(C)C)C(C)C)ccc3n2)CC1` [compound 0035], 64.68%.

As to `CCN(CC)CCCCNC(=S)Nc1ccc2nc(N3CCN(CC)CC3)cc(C)c2c1` [compound 0036], the “D-Loop (% @10 μM)” value turned out to be 64.62%. As for `CCN(CC)CCNC(=O)Nc1ccc2nc(N3CCN(CC)CC3)cc(C)c2c1` [compound 0038, 1-(2-(diethylamino)ethyl)-3-(2-(4-ethylpiperazin-1-yl)-4-methylquinolin-6-yl)urea], the “D-Loop (% @10 μM)” value is on record as 77.7%. Under `CCN1CCN(c2cc(C)c3cc(NC(=O)NCCCN4CCCCCC4)ccc3n2)CC1` [compound 0039, 1-(3-(azepan-1-yl)propyl)-3-(2-(4-ethylpiperazin-1-yl)-4-methylquinolin-6-yl)urea] stands 93.38%. For `CCN1CCN(c2cc(C)c3cc(NC(=S)NCCN4CCCCCCC4)ccc3n2)CC1` [compound 0041], the “D-Loop (% @10 μM)” value came out at 62.62%. The same measure for `CCN1CCN(c2cc(C)c3cc(NC(=S)NCCCN4CCC4)ccc3n2)CC1` [compound 0042]: 53.70%. With `CCN1CCN(c2cc(C)c3cc(NC(=S)NCC(C)(CN)CN)ccc3n2)CC1` [compound 0044], the “D-Loop (% @10 μM)” value is recorded as 50.05%. The same measure for `CCN1CCN(c2cc(C)c3cc(NC(=S)NCCN4CCNCC4)ccc3n2)CC1` [compound 0045]: 55.68%; for `CCN1CCN(c2cc(C)c3cc(NC(=S)NCCN4CCN(C)CC4)ccc3n2)CC1` [compound 0046]: 18.73%; for `CCN1CCN(c2cc(C)c3cc(NC(=S)NCCCCN)ccc3n2)CC1` [compound 0047]: 7.92%.

As to `CCN(CC)CCNC(=S)Nc1ccc2nc(N3CCNCC3)cc(C)c2c1` [compound 0048], the “D-Loop (% @10 μM)” value turned out to be 15.65%. Take `CCN(CC)CCNC(=S)Nc1ccc2nc(N3CCN(CC4CC4)CC3)cc(C)c2c1` [compound 0049]: the “D-Loop (% @10 μM)” value stood at 44.4%. The same measure for `CCN(CC)CCNC(=S)Nc1ccc2nc(N3CCN(CC4CCCCC4)CC3)cc(C)c2c1` [compound 0050]: 62.82%.

`CCN(CC)CCNC(=S)Nc1ccc2nc(N3CCN(CC4CCCNC4)CC3)cc(C)c2c1` (centres unmarked) [compound 0051]: the “D-Loop (% @10 μM)” value is 10.13%. On to `CCN(CC)CCNC(=S)Nc1ccc2nc(N3CCN(CC4CCNCC4)CC3)cc(C)c2c1` [compound 0052], for which the “D-Loop (% @10 μM)” value came out at 4.07%.

`CCC(C)[C@H](N)C(=O)N1CCN(c2cc(C)c3cc(NC(=S)NCCN(CC)CC)ccc3n2)CC1` (some centres unmarked) [compound 0053]: the “D-Loop (% @10 μM)” value was found to be 54.13%. As to `CCN(CC)CCNC(=S)Nc1ccc2nc(N3CCN(C(=O)C4CCCN4)CC3)cc(C)c2c1` (centres unmarked) [compound 0054], the “D-Loop (% @10 μM)” value was 53.78%. The same measure for `CCN(CC)CCNC(=S)Nc1ccc2nc(N3CCN(C(=O)C4CNCCN4)CC3)cc(C)c2c1` (centres unmarked) [compound 0055]: 27.42%; for `CCN1CCN(c2cc(C)c3cc(NC(=S)NCCCCCN)ccc3n2)CC1` [compound 0056]: 0.31%.

Consider `CCN1CCN(c2cc(C)c3cc(NC(=S)NCCCNC)ccc3n2)CC1` [compound 0057], for which the “D-Loop (% @10 μM)” value turned out to be 52.1%. Under `CCN1CCN(c2cc(C)c3cc(NC(=S)N(C)CCCN)ccc3n2)CC1` [compound 0058] stands 25.89%; under `Cc1cc(N2CCN(CC3CCCNC3)CC2)nc2ccc(NC(=S)NCCN3CCCCCC3)cc12` (centres unmarked) [compound 0059], 1.3%; under `Cc1cc(N2CCN(CC3CCNCC3)CC2)nc2ccc(NC(=S)NCCN3CCCCCC3)cc12` [compound 0060], 0.66%. As to `Cc1cc(N2CCN(CC3CCCNC3)CC2)nc2ccc(NC(=S)NCCCN3CCCCCC3)cc12` (centres unmarked) [compound 0062], the “D-Loop (% @10 μM)” value amounted to 1.89%.

As to `Cc1cc(N2CCN(CC3CCNCC3)CC2)nc2ccc(NC(=S)NCCCN3CCCCCC3)cc12` [compound 0063], the “D-Loop (% @10 μM)” value is 1.58%. As for `Cc1cc(N2CCN(CC3CCCNC3)CC2)nc2ccc(NC(=S)NCCCN3CCCC3)cc12` (centres unmarked) [compound 0064], the “D-Loop (% @10 μM)” value amounted to 1.5%. In the case of `Cc1cc(N2CCN(CC3CCNCC3)CC2)nc2ccc(NC(=S)NCCCN3CCCC3)cc12` [compound 0065], the “D-Loop (% @10 μM)” value came out at 1.04%. Under `CCN1CCN(c2cc(C)c3cc(NC(=S)NCCCCN(C)C)ccc3n2)CC1` [compound 0067] stands 35.65%; under `CCN1CCN(c2cc(C)c3cc(NC(=S)NCCCN4CCCC4)ccc3n2)CC1` [compound 0068], 30.62%. For `CCN1CCN(c2cc(C)c3cc(NC(=S)NCCC4CCCN4)ccc3n2)CC1` (centres unmarked) [compound 0069], the “D-Loop (% @10 μM)” value is recorded as 20.7%. Under `CCN1CCN(c2cc(C)c3cc(NC(=S)NCCN4CCC(CN5CCCC5)C4)ccc3n2)CC1` (centres unmarked) [compound 0073] stands 16.42%; under `CCN1CCN(c2cc(C)c3cc(NC(=S)NCCCN)ccc3n2)CC1` [compound 0077], 21.2%; under `CCN1CCN(c2cc(C)c3cc(NC(=S)NCCCN4CCNCC4)ccc3n2)CC1` [compound 0079], 25.15%.

Regarding `CCN(CC)CCNC(=S)Nc1ccc2nc(N3CCN(CCN)CC3)cc(C)c2c1` [compound 0080], the “D-Loop (% @10 μM)” value is 35.63%. The same measure for `CCN(CC)CCNC(=S)Nc1ccc2nc(N3CCN(Cc4nccn4C)CC3)cc(C)c2c1` [compound 0084]: 68.84%; for `CCN(CC)CCNC(=S)Nc1ccc2nc(N3CCN(CC(N)CO)CC3)cc(C)c2c1` (centres unmarked) [compound 0086]: 4.44%; for `CCN(CC)CCNC(=S)Nc1ccc2nc(N3CCN(CCC4CCC(N)CC4)CC3)cc(C)c2c1` (centres unmarked) [compound 0087]: 0%. With `CCN(CC)CCNC(=S)Nc1ccc2nc(N3CCCC3)cc(C)c2c1` [compound 0088], the “D-Loop (% @10 μM)” value was determined as 8.25%. In the case of `Cc1cc(N2CCCC2)nc2ccc(NC(=S)NCCN3CCCCCC3)cc12` [compound 0089], the “D-Loop (% @10 μM)” value is 3.48%. Under `Cc1cc(N2CCCC2)nc2ccc(NC(=S)NCCN3CCCCC3)cc12` [compound 0090] stands 2.93%. As for `Cc1cc(N2CCCC2)nc2ccc(NC(=S)NCCCN3CCCCC3)cc12` [compound 0091], the “D-Loop (% @10 μM)” value is on record as 3.47%. Under `Cc1cc(N2CCCC2)nc2ccc(NC(=S)NCCCN3CCCC3)cc12` [compound 0092] stands 5.98%; under `Cc1cc(N2CCCC2)nc2ccc(NC(=S)NCCN)cc12` [compound 0093], 4.86%. Under `Cc1cc(N2CCCC2)nc2ccc(NC(=S)NCCCN)cc12` [compound 0094] stands 4.26%; under `Cc1cc(N2CCCC2)nc2ccc(NC(=S)NCCCCN)cc12` [compound 0095], 4.51%; under `Cc1cc(N2CCCC2)nc2ccc(NC(=S)NCCN3CCNCC3)cc12` [compound 0096], 3.99%. The same measure for `Cc1cc(N2CCCC2)nc2ccc(NC(=S)NCCN3CCN(C)CC3)cc12` [compound 0097]: 4.72%; for `CCN(CC)CCNC(=S)Nc1ccc2nc(N3CCCCC3)cc(C)c2c1` [compound 0098]: 70.99%.

`Cc1cc(N2CCCCC2)nc2ccc(NC(=S)NCCN3CCCCCC3)cc12` [compound 0099]: the “D-Loop (% @10 μM)” value worked out at 67.50%. The same measure for `Cc1cc(N2CCN(CC3CCNCC3)CC2)nc2ccc(NC(=O)NCCCN3CCCCCC3)cc12` [compound 0113, 1-(3-(azepan-1-yl)propyl)-3-(4-methyl-2-(4-(piperidin-4-ylmethyl)piperazin-1-yl)quinolin-6-yl)urea]: 0.34%; for `CCN(CC)CCNC(=O)C(=O)Nc1ccc2nc(N3CCN(CC)CC3)cc(C)c2c1` [compound 0114, N^1-(2-(diethylamino)ethyl)-N^2-(2-(4-ethylpiperazin-1-yl)-4-methylquinolin-6-yl)oxalamide]: 16%.
